Experimental data published in patent publication US9073830B2 (Hyundai Pharm Co., Ltd., priority 2011, dated 2015).

What was measured:
[1] = molecular target: T1, human 11β-HSD1 (Homo sapiens, UniProt P28845); test: Enzyme activity analysis on human 11β-HSD1 (HTRF cortisol, liver microsomes); format: biochemical; conditions: first value of cell
T1 construct: 100 ug/ml human/mouse liver microsomes; from tissue; host or cells: human liver microsomes
How it was run: (§1)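 Cortisol generated by mouse or human liver microsome 11β-HSD1 during 2 h at 37° C., measured by HTRF competition (cryptate anti-cortisol antibody, d2-cortisol, 2 h room temperature) against a cortisol standard curve. IC50 from percent inhibition versus no-compound control.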

[2] = molecular target: T2, mouse 11β-HSD1 (Mus musculus, UniProt P50172); test: Enzyme activity analysis on mouse 11β-HSD1 (HTRF cortisol, liver microsomes); format: biochemical; conditions: second value of cell
T2 construct: 100 ug/ml human/mouse liver microsomes; from tissue; host or cells: mouse liver microsomes
How it was run: as §1

T2 sequence (P50172 whole entry): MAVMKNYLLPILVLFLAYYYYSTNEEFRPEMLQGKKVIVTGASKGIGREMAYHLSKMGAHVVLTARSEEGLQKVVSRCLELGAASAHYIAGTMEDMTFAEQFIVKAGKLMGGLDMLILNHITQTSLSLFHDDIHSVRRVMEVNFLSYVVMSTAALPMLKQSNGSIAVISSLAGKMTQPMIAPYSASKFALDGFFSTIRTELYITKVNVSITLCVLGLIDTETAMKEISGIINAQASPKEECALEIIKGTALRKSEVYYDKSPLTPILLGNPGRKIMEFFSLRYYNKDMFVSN
T1 sequence (P28845 whole entry): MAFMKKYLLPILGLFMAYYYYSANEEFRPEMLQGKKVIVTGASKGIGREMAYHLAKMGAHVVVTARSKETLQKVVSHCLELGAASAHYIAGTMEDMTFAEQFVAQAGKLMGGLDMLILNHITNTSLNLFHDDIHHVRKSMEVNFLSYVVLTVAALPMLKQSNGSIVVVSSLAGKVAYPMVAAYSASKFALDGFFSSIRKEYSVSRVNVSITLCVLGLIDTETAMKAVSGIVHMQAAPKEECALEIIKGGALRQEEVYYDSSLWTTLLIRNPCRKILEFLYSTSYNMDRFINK

Compound | IC50 [1] [µM] | IC50 [2] [µM]
CC(C)(NS(=O)(=O)c1cccc(Br)c1)C(=O)NC1C2CC3CC1CC(C(N)=O)(C3)C2 (stereo not drawn) [compound 123] | 0.139 | 0.291
CC(C)(NS(=O)(=O)c1ccc(Br)cc1)C(=O)NC1C2CC3CC1CC(C(N)=O)(C3)C2 (stereo not drawn) [compound 124] | 0.024 | 0.22
CC(C)(NS(=O)(=O)c1cc(Cl)cc(Br)c1)C(=O)NC1C2CC3CC1CC(C(N)=O)(C3)C2 (stereo not drawn) [compound 125] | 0.021 | 0.168
CC(C)(NS(=O)(=O)c1ccc(C(F)(F)F)cc1)C(=O)NC1C2CC3CC1CC(C(N)=O)(C3)C2 (stereo not drawn) [compound 126] | 0.182 | 0.455
CC(C)(NS(=O)(=O)c1cccc(C(F)(F)F)c1)C(=O)NC1C2CC3CC1CC(C(N)=O)(C3)C2 (stereo not drawn) [compound 127] | 0.062 | 0.053
COc1cc([N+](=O)[O-])ccc1S(=O)(=O)NC(C)(C)C(=O)NC1C2CC3CC1CC(C(N)=O)(C3)C2 (stereo not drawn) [compound 128] | 0.076 | 0.22
COc1ccc(S(=O)(=O)NC(C)(C)C(=O)NC2C3CC4CC2CC(C(N)=O)(C4)C3)c(OC)c1 (stereo not drawn) [compound 129] | 0.096 | 0.589
CC(C)(NS(=O)(=O)c1ccccc1C#N)C(=O)NC1C2CC3CC1CC(C(N)=O)(C3)C2 (stereo not drawn) [compound 130, 4-[2-(2-cyano-benzenesulfonylamino)-2-methyl-propionylamino]-adamantane-1-carboxylic acid amide] | 0.078 | 0.405
NC(=O)C12CC3CC(C1)C(NC(=O)C1(NS(=O)(=O)c4ccccc4Br)CC1)C(C3)C2 (stereo not drawn) [compound 131, N-4-(1-(2-bromophenylsulfonamido)cyclopropanecarboxyamido)adamantane-1-carboxyamide] | 0.008 | 0.048
NC(=O)C12CC3CC(C1)C(NC(=O)C1(NS(=O)(=O)c4ccccc4Cl)CC1)C(C3)C2 (stereo not drawn) [compound 132, N-4-(1-(2-chlorophenylsulfonamido)cyclopropanecarboxyamido)adamantane-1-carboxyamide] | 0.037 | 0.148
Cc1c(Cl)cccc1S(=O)(=O)NC1(C(=O)NC2C3CC4CC2CC(C(N)=O)(C4)C3)CC1 (stereo not drawn) [compound 133, N-4-(1-(2-methyl-3-chlorophenylsulfonamido)cyclopropanecarboxyamido)adamantane-1-carboxyamide] | 0.015 | 0.074
NC(=O)C12CC3CC(C1)C(NC(=O)C1(NS(=O)(=O)c4c(Cl)cccc4Cl)CC1)C(C3)C2 (stereo not drawn) [compound 134, N-4-(1-(2,6-dichlorophenylsulfonamido)cyclopropanecarboxyamido)adamantane-1-carboxyamide] | 0.021 | 0.021
NC(=O)C12CC3CC(C1)C(NC(=O)C1(NS(=O)(=O)c4cccc5cccnc45)CC1)C(C3)C2 (stereo not drawn) [compound 135, N-4-(1-(quinoline-8-sulfonamido)cyclopropanecarboxyamido)adamantane-1-carboxyamide] | 0.042 | 0.02
NC(=O)C12CC3CC(C1)C(NC(=O)C1(NS(=O)(=O)c4cccc(Cl)c4Cl)CC1)C(C3)C2 (stereo not drawn) [compound 136, N-4-(1-(2,3-dichlorophenylsulfonamido)cyclopropanecarboxyamido)adamantane-1-carboxyamide] | 0.009 | 0.028
O=C(NC1C2CC3CC(C2)CC1C3)C1(NS(=O)(=O)c2ccccc2[N+](=O)[O-])CCC1 (stereo not drawn) [compound 137, N-(adamantane-2-yl)-1-(2-nitrophenylsulfonamido)cyclobutanecarboxyamide] | 0.255 | 1.1
O=C(NC1C2CC3CC(C2)CC1C3)C1(NS(=O)(=O)c2ccccc2Br)CCC1 (stereo not drawn) [compound 138, N-(adamantane-2-yl)-1-(2-bromophenylsulfonamido)cyclobutanecarboxyamide] | 0.113 | 0.806
O=C(NC1C2CC3CC(C2)CC1C3)C1(NS(=O)(=O)c2ccccc2)CCC1 (stereo not drawn) [compound 139] | 0.547 | 0.178
O=C(NC1C2CC3CC(C2)CC1C3)C1(NS(=O)(=O)c2ccccc2C(F)(F)F)CCC1 (stereo not drawn) [compound 140, N-(adamantane-2-yl)-1-(2-trifluoromethylphenylsulfonamido)cyclobutanecarboxyamide] | 0.184 | 1.68

Compound | IC50 [1] [µM] | IC50 [2] [µM]
O=C(NC1C2CC3CC(C2)CC1C3)C1(NS(=O)(=O)c2cccc3cccnc23)CCC1 (stereo not drawn) [compound 141, N-(adamantane-2-yl)-1-(quinoline-8-sulfonamido)cyclobutanecarboxyamide] | 0.139 | 0.208
O=C(NC1C2CC3CC(C2)CC1C3)C1(NS(=O)(=O)c2cccc([N+](=O)[O-])c2)CCC1 (stereo not drawn) [compound 142, N-(adamantane-2-yl)-1-(3-nitrophenylsulfonamido)cyclobutanecarboxyamide] | > 2.5 | 1.44
O=C(NC1C2CC3CC(C2)CC1C3)C1(NS(=O)(=O)c2ccc([N+](=O)[O-])cc2)CCC1 (stereo not drawn) [compound 143, N-(adamantane-2-yl)-1-(4-nitrophenylsulfonamido)cyclobutanecarboxyamide] | > 2.5 | > 2.5
O=C(NC1C2CC3CC(C2)CC1C3)C1(NS(=O)(=O)c2ccccc2OC(F)(F)F)CCC1 (stereo not drawn) [compound 144, N-(adamantane-2-yl)-1-(2-trifluoromethoxyphenylsulfonamido)cyclobutanecarboxyamide] | 0.265 | 1.82
NC(=O)C12CC3CC(C1)C(NC(=O)C1(NS(=O)(=O)c4ccccc4[N+](=O)[O-])CCC1)C(C3)C2 (stereo not drawn) [compound 145, N-4-(1-(2-nitrophenylsulfonamido)cyclobutanecarboxyamido)adamantane-1-carboxyamide] | 0.08 | 0.509
NC(=O)C12CC3CC(C1)C(NC(=O)C1(NS(=O)(=O)c4ccc([N+](=O)[O-])c(C(F)(F)F)c4)CCC1)C(C3)C2 (stereo not drawn) [compound 147, N-4-(1-(3-trifluoromethyl-4-nitrophenylsulfonamido)cyclobutanecarboxyamido)adamantane-1-carboxyamide] | 1.3 | 0.505
NC(=O)C12CC3CC(C1)C(NC(=O)C1(NS(=O)(=O)c4ccccc4)CCC1)C(C3)C2 (stereo not drawn) [compound 148, N-4-(1-(phenylsulfonamido)cyclobutanecarboxyamido)adamantane-1-carboxyamide] | 0.163 | 0.056
Cc1c(Cl)cccc1S(=O)(=O)NC1(C(=O)NC2C3CC4CC2CC(C(N)=O)(C4)C3)CCC1 (stereo not drawn) [compound 149, N-4-(1-(2-methyl-3-chlorophenylsulfonamido)cyclobutanecarboxyamido)adamantane-1-carboxyamide] | 0.015 | 0.04
Cc1ccc(S(=O)(=O)NC2(C(=O)NC3C4CC5CC3CC(C(N)=O)(C5)C4)CCC2)cc1[N+](=O)[O-] (stereo not drawn) [compound 150, N-4-(1-(3-nitro-4-methylphenylsulfonamido)cyclobutanecarboxyamido)adamantane-1-carboxyamide] | 0.639 | 0.187
Cc1ccc(S(=O)(=O)NC2(C(=O)NC3C4CC5CC3CC(C(N)=O)(C5)C4)CCC2)cc1F (stereo not drawn) [compound 151, N-4-(1-(3-fluoro-4-methylphenylsulfonamido)cyclobutanecarboxyamido)adamantane-1-carboxyamide] | 0.182 | 0.062
NC(=O)C12CC3CC(C1)C(NC(=O)C1(NS(=O)(=O)c4ccccc4Cl)CCC1)C(C3)C2 (stereo not drawn) [compound 152, N-4-(1-(2-chlorophenylsulfonamido)cyclobutanecarboxyamido)adamantane-1-carboxyamide] | 0.021 | 0.099
NC(=O)C12CC3CC(C1)C(NC(=O)C1(NS(=O)(=O)c4ccc(Cl)cc4Cl)CCC1)C(C3)C2 (stereo not drawn) [compound 153, N-4-(1-(2,4-dichlorophenylsulfonamido)cyclobutanecarboxyamido)adamantane-1-carboxyamide] | 0.058 | 0.459
COc1ccc(S(=O)(=O)NC2(C(=O)NC3C4CC5CC3CC(C(N)=O)(C5)C4)CCC2)cc1F (stereo not drawn) [compound 154, N-4-(1-(3-fluoro-4-methoxyphenylsulfonamido)cyclobutanecarboxyamido)adamantane-1-carboxyamide] | 1.63 | 0.565
NC(=O)C12CC3CC(C1)C(NC(=O)C1(NS(=O)(=O)c4ccccc4Br)CCC1)C(C3)C2 (stereo not drawn) [compound 155, N-4-(1-(2-bromophenylsulfonamido)cyclobutanecarboxyamido)adamantane-1-carboxyamide] | 0.024 | 0.145
Cc1ccccc1S(=O)(=O)NC1(C(=O)NC2C3CC4CC2CC(C(N)=O)(C4)C3)CCC1 (stereo not drawn) [compound 156, N-4-(1-(2-methylphenylsulfonamido)cyclobutanecarboxyamido)adamantane-1-carboxyamide] | 0.046 | 0.138
NC(=O)C12CC3CC(C1)C(NC(=O)C1(NS(=O)(=O)c4ccccc4C(F)(F)F)CCC1)C(C3)C2 (stereo not drawn) [compound 157, N-4-(1-(2-trifluoromethylphenylsulfonamido)cyclobutanecarboxyamido)adamantane-1-carboxyamide] | 0.061 | 0.41
NC(=O)C12CC3CC(C1)C(NC(=O)C1(NS(=O)(=O)c4cccc(Cl)c4Cl)CCC1)C(C3)C2 (stereo not drawn) [compound 158, N-4-(1-(2,3-dichlorophenylsulfonamido)cyclobutanecarboxyamido)adamantane-1-carboxyamide] | 0.018 | 0.058
NC(=O)C12CC3CC(C1)C(NC(=O)C1(NS(=O)(=O)c4cccc(Cl)c4F)CCC1)C(C3)C2 (stereo not drawn) [compound 159, N-4-(1-(2-fluoro-3-chlorophenylsulfonamido)cyclobutanecarboxyamido)adamantane-1-carboxyamide] | 0.096 | 0.126
